Test results reported in patent US20200016152A1, “TREATMENT OF DISEASES” (Ampio Pharmaceuticals, Inc., priority 2010, published 2020).

Experiments:
[1] = tested on: human retinal endothelial cells; experiment: Actin stress fiber formation (rhodamine-phalloidin F-actin staining); format: cell-based
Protocol: Passage 12 human retinal endothelial cells (ACBRI 181, Cell Systems Corporation (exclusive distributor for Applied Cell Biology Research Institute), Kirkland, Wash.) were seeded into 16-chamber glass slides coated with 5 μg/cm^2 fibronectin at 5000 cells per well in a total volume of 200 μl of EGM-2 medium (Lonza). The slides were cultured in a 37° C. incubator with 5% CO2 for 48 hours with daily medium changes. Then, the test compounds (DA-DKP, S1P and TNFα), diluted in Hanks Balanced Salt Solution (HBSS; Lonza), were added to give the following final concentrations: DA-DKP (100 μM) (Sigma), TNFα (1 ng/ml) (Sigma), and S1P (1 μM) (Sigma). The slides were incubated with the test compounds for 15 minutes or 3 hours in a 37° C. incubator with 5% CO2. After this incubation, the medium was aspirated, and the cells were fixed using 3.6% formaldehyde in phosphate buffered saline (PBS) for ten minutes at room temperature. All wells were then washed two times with 100 μl PBS. The cells were permeabilized using a 0.1% Triton X-100 in PBS for 5 minutes. All wells were then washed two times with 100 μl PBS, and 50 μl of a 1:40 dilution of rhodamine-phalloidin (Invitrogen) in PBS was added to the cells to stain for F-actin and left on the cells for 20 minutes at room temperature. All wells were then washed two times with 100 μl PBS. Then 100 μl PBS was added to each well and the cells were observed and photographed using an inverted microscope using a rhodamine (ex530/em590) filter.

[2] = tested on: RhoA; experiment: Rho activation assay (GLISA) in retinal endothelial cells; format: cell-based, human; conditions: for active Rho A levels induced: thrombin alone
Protocol: This experiment was performed using a commercially-available Rho activation assay (GLISA) purchased from Cytoskeleton, Denver, Colo., following the manufacturer's protocol. Briefly, passage 8 or 12 human retinal endothelial cells (ACBRI 181, Applied Cell Biology Research Institute, Kirkland, Wash.) were cultured on fibronectin-coated (1 μg/cm^2) 6-well tissue culture plates using EGM-2 culture medium (Lonza) for 24 hours in a 37° C. incubator with 5% CO2 (30,000 cells/well in total volume of 3 ml). Then, the medium was aspirated and replaced with Ultraculture medium supplemented with 0.1% fetal bovine serum, L-glutamine, sodium pyruvate, penicillin/streptomycin and ITSS (insulin, transferrin sodium selenium) (all from Lonza) to serum starve the cells and reduce the background level of RhoA. The cells were cultured for 24 hours in a 37° C. incubator with 5% CO2. Test compounds diluted in HBSS were placed in the incubator to equilibrate before addition to the cells. Then, 150 μl of each test compound was added to the appropriate culture wells, and the plates were incubated in the incubator for an additional 15 minutes. Then, thrombin was added to appropriate wells. After 1 minute, the cells were washed one time with 1.5 ml phosphate buffered saline and were then lysed with 100 μl GLISA lysis buffer supplemented with protease inhibitors. The extracts were scraped, transferred to microcentrifuge tubes and transferred to ice to preserve the active form of RhoA. All extracts were then cleared of debris by spinning at 10,000 rpms for 2 minutes at 4° C. The supernatants were transferred to new tubes and placed back on ice. Aliquots of each extract were removed for the GLISA assay and for protein determinations. All protein concentrations were within 10%, and the extracts were used at the achieved concentrations (equates to 15 total protein per well). The GLISA assay was performed using the reagents supplied in the kit.

[3] = tested on: passage 6 human retinal endothelial cells; experiment: ECIS transendothelial electrical resistance (TER), passage 6 retinal endothelial cells; format: cell-based; conditions: for ECIS as compared to untreated cells: monitored 50 hours
Protocol: Assays were performed to determine the effect of MR-DKP (a diketopiperazine wherein R^1 in formula I is the side chain of methionine and R^2 is side chain of arginine) on transendothelial electrical resistance (TER) of passage 6 human retinal endothelial cells (Applied Cell Systems Corporation (exclusive distributor for Applied Cell Biology Research Institute), Kirkland, Wash.). Electrical resistance was measured using the electric cell-substrate impedance sensing (ECIS) system (ECISZθ, obtained from Applied Biophysics) with 8-well multiple electrode plates (8W10E). Each well of the plates was stabilized by adding 250 μl of 10 mM cysteine (Sigma) in sterile water to each well and incubating for 30 minutes at room temperature. The wells were then washed two times with 150 μl of sterile water to remove the cysteine. All wells were then coated with 10 μg/cm^2 collagen by diluting the stock solution (0.5 mg/ml Type IV collagenin 0.25% acetic acid (Sigma) in sterile water and adding 150 μl of the resulting solution to each well. The collagen solution was incubated on the plates at 37° C. for 120 minutes and then removed. The wells were washed two times with 400 μl sterile water to remove the collagen. Next, 400 μl of EGM-2 culture medium (Lonza) was added to each well. The plates were connected to the ECISZθ system and were electrically stabilized. The EGM-2 medium was aspirated and replaced with 400 μl of EGM-2 culture medium containing 100,000 cells per well. The plates were reconnected to the ECISZθ system and incubated for 24 hours in a 37° C. incubator with 5% CO2. The EGM-2 medium was aspirated and replaced with 400 μl of EGM-2 culture medium. The plates were reconnected to the ECISZθ system and incubated for 2 hours in a 37° C. incubator with 5% CO2. Solutions of the test compound in HBSS were prepared and placed in the incubator to equilibrate. The test compound was then added to appropriate wells at the following final concentrations: MR-DKP (50 μM and 100 ECIS (resistance) was monitored for 50 hours.
Example 5 was repeated, except that the diketopiperazine used was YE-DKP (a diketopiperazine wherein R^1 in formula I is the side chain of glutamic acid and R^2 is the side chain of tyrosine). […] The increase was about 20% at its maximum.

[4] = passage 12 cells, 1.0 μM + 0.1 U/ml thrombin
[5] = passage 12 cells, 1.0 μM, no thrombin

CCCCCCCCCCCCC/C=C/[C@@H](O)[C@@H](N)COP(=O)(O)O [S1P, sphingosine-1 phosphate, reference compound]
F-actin staining pattern ([1]; S1P 1 μM alone, 15 minutes and 3 hours): actin cortical rings

COc1cc2ncnc(Nc3ccc(Oc4ccccc4)cc3)c2cc1OC [Src-1 Inhibitor]
Mean OD (active RhoA) [2, 4]: 0.534 | Percent Inhibition vs. Thrombin [2, 4]: 85.85% | Mean OD (active RhoA) [2, 5]: 0.349 | Percent Inhibition vs. Untreated Control [2, 5]: 23.21%

O=C(O)CC[C@@H]1NC(=O)[C@H](Cc2ccc(O)cc2)NC1=O [YE-DKP]
ECIS as compared to untreated cells ([3]; 50 μM): did not show a significant increase in ECIS | ECIS increase at its maximum ([3]; 100 μM): about 20% | persistence of ECIS increase ([3]; 100 μM): persisted for the remainder of the experiment | start of ECIS increase ([3]; 100 μM): about 6 hours | time at which ECIS increase became significant ([3]; 100 μM): about 12 hours | time at which resistance increased again ([3]; 100 μM): about 29 hours | time at which resistance returned to the levels of the control ([3]; 100 μM): around 28 hours | time of reaching significance again ([3]; 100 μM): about 33 hours | ECIS as compared to untreated cells ([3]; 100 μM): increase in ECIS

TNFα [reference compound]
F-actin staining pattern (stress fibers) ([1]; TNFα 1 ng/ml alone, 15 minutes to 3 hours): stress fibers were seen at all times

Thrombin
Mean OD (active RhoA) ([2]; passage 8 cells, 0.1 U/ml thrombin alone): 0.561 | active Rho A levels induced ([2]; passage 8 cells): very high | Mean OD (active RhoA) ([2]; passage 12 cells, 0.1 U/ml thrombin alone): 1.013 | active Rho A levels induced ([2]; passage 12 cells): very high
